According to patent publication US20250325670A1, “NOVEL BORON AGENT” (priority 2021, published 2025):

Key:
[1] = Changes in body weight after BNCT irradiation; type: in vivo, mouse; conditions: 25 mg (10B)/kg iv, neutron irradiated
Procedure: As described in (A), the U-87 MG tumor-bearing mice were injected with 200 μL of a PBS solution of a boron compound (PBC-IP-HSA, L-BPA: 25 mg (^10B)/kg for each) through the tail vein. The whole mouse was placed in an acrylic mouse holder and fixed to a thermoplastic plate having a thickness of 5 mm. Three hours (L-BPA) or six hours (PBC-IP-HSA) after administration, the right thigh of the mouse was irradiated with a neutron in a dose range of 4.5 to 6.1×10^12 neutrons/cm^2 in the KUR reactor. The BNCT effect was evaluated based on the changes in tumor volume in the mouse (FIG. 4B). In order to determine the tumor volume, two perpendicular diameters of the tumor were measured with slide calipers and calculated by using the spherical volume expression {4/3π×(R/2)^3}. Here, R is the average of the longest dimension and the shortest dimension (each in millimeters) of the tumor.
In the irradiation experiment carried out in (B), changes in body weight after irradiation were measured.

[2] = tested on: F98 malignant glioblastoma; test: BNCT therapeutic effect (survival time) in F98 malignant glioblastoma cell-implanted rat brain tumor model; type: in vivo; conditions: after tumor implantation; BNCT with BPA (iv) or PBC-IP (CED)
Procedure: Three hours after administration of PBC-IP (CED), neutron irradiation was carried out to verify the therapeutic effect of neutron capture therapy (FIG. 7). The brain tumor models were divided into an untreated group, a neutron irradiation only group, a BNCT with BPA (iv) group, a BNCT with local administration of PBC-IP (CED) group, and a PBC-IP (CED) plus BPA (iv) group to carry out a treatment experiment, and the survival times after tumor implantation were compared. The therapeutic effect of intravenous BPA as a control for BNCT treatment represented a significant prolongation of survival time with a median survival time of 37 days. […] The effect was even higher in the group that received treatment with PBC-IP (CED) […] plus intravenous BPA, indicating the antitumor effect of PBC-IP on a BPA-refractory tumor site. In the C6-implanted rat brain tumor model, the tumor boron concentration by PBC-IP (CED) was about 36 ppm, which was higher than that for F98.
In a BNCT experiment, 14 days after implantation of 10^3 F98 malignant glioblastoma cells, neutron irradiation was carried out by using KURRI. Malignant glioblastoma cell-bearing rats were randomly divided into 5 groups (groups 1 to 5) so that each group consisted of 6 to 10 rats. […] The therapeutic effect was evaluated by the survival times of all rats.

A549 cells (FRα(−)) = test: BNCT antitumor effect in vitro (thermal neutron irradiation, MTT survival rate); type: cell-based, human; conditions: 25 ppm 10B, 3 hours, thermal neutron dose-dependent, MTT after 96 hours
Procedure: (A) Human brain tumor cell U87MG (FRα(+)), (B) human lung cancer cell A549 (FRα(−)). The cells were cultured for 3 hours with an agent ^10B at a concentration of 25 ppm, followed by removal of the agent and irradiated.
Cells (A549 1000 cells/well or U-87 MG 500 cells/well) seeded in a 96 well plate were cultured together with PBC-IP and L-BPA-fructose at a concentration of 25 ppm [^10B] at 37° C. for 3 hours, and then unilaterally irradiated with thermal neutrons from one side of the plate for 12 minutes. Subsequently, the medium was replaced, the cells were cultured for 96 hours, and then an MTT assay was carried out to evaluate the survival rate of the cells (FIG. 3). The thermal neutron irradiation was carried out by using the irradiation facility of the Institute for Integrated Radiation and Nuclear Science, Kyoto University (KUR), and the cells after irradiation were cultured in the controlled area of KUR. In addition, the survival rate is calculated based on the following expression.

[3] = tested on: A549, U87MG, C6, F98 cells; test: Intracellular boron accumulation in various cells (ICP-AES); type: cell-based, human, rat; conditions: 5 μg B/mL
Procedure: F98 rat malignant glioblastoma cells were provided by Dr. Rolf Barth (Department of Pathology, The Ohio State University, Columbus, OH, US) and were cultured at 37° C. in 5% CO^2 by using Dulbecco's modified Eagle's medium (DMEM) supplemented with 10% fetal bovine serum (FBS) and 10% penicillin/streptomycin/amphotericin B. The F98 rat malignant glioblastoma cells were histologically characterized as anaplastic astrocytoma.
First, 5×10^5 cells were placed in a 100 mm dish (Becton Dickinson, Franklin Lakes, New Jersey) and cultured at 37° C. in 5% CO2 by using the medium described above. […] After that, the medium containing the boron compound was removed, and the cells were washed twice with 4% phosphate buffered saline (PBS) and then detached with a trypsin-ethylenediaminetetraacetic acid solution. After that, a medium was added, centrifugation (200×g, 5 minutes) was carried out twice, and cells were counted and finally sedimented. After that, the cells were digested with a 1 N nitric acid solution (Wako Pure Chemical Industries, Osaka Japan) overnight, and the amount of boron taken up was measured by inductively coupled plasma-atomic emission spectroscopy (ICP-AES) using an iCAP6300 emission spectrometer (Hitachi High-Technologies, Tokyo, Japan).

## N[C@@H](Cc1ccc(B(O)O)cc1)C(=O)O [BPA]
[1]
  changes in body weight after irradiation compared with the control group: no significant difference
[2]
  median survival time: 37 days
A549 cells (FRα(−))
  BNCT antitumor effect (cell survival rate): higher BNCT antitumor effect
[3]
  selective accumulation among the four types of cells: selective accumulation in the A549 cells
